The term Kp denotes tissue or fluid exposure divided by exposure in the circulation. The term IC50 denotes the concentration that inhibits the measured activity by half.

Here are results for 27 compounds from US11168067B2, “Substituted quinazoline compound having blood-brain barrier penetration capability” (WEISHANG (SHANGHAI) BIO-PHARMACEUTICAL CO., LTD., priority 2016, dated 2021).

A short description of series [1]: Blood-brain barrier penetration (brain tissue to plasma concentration ratio). The class given is in vivo. The conditions noted are these: rat, rats, four hours after dosing. The protocol:
To determine whether the compound was able to cross the blood-brain barrier (BBB), the rats were administered with the test compound. Four hours after dosing, rats were sacrificed, blood and brain tissue were collected and the concentration of the test compound was analyzed. Brain permeation is defined as the ratio of the concentration of the compound in the brain tissue to the concentration in the plasma. P-glycoprotein is the blood-brain barrier efflux protein, […].

The next series deals with PC-9 tumor cell. Briefly: CellTiter-Glo (CTG) cell viability assay, PC-9 tumor cell growth inhibition. The following applies: for IC50: Homo sapiens, PC-9, 72 h, read-out: PC-9 tumor cell growth inhibition IC50; for inhibiting PC-9 tumor cell growth compared with Iressa: PC-9 cells, cell viability assay. Background: ATP-based viability assays read luminescence as a measure of living cells.

Method for PC-9 tumor cell: Cell viability of tumor cells with EGFR-activated mutations (exon 19-deficient Exon 19 Del) protein was detected using CellTiter-Glo (CTG) assay; about 5000 cells were seeded in each blank 96-well plate, 16 hours later, add the proportionally diluted compound, equilibrated at room temperature for 72 hours after the addition of the drug for 30 minutes. 100 μl of CellTiter-Glo reagent was added to each well and the orbital shaker was mixed for 2 minutes to induce cell lysis. The plate was incubated at room temperature for 10 minutes to stabilize the luminescence signal. The TECAN Infinite M1000 Pro instrument records the luminescence signal.

As for `COc1cc2ncnc(Nc3cccc(Cl)c3F)c2cc1OC1CCN(C2COC2)CC1(F)F` (racemic) [Compound 1, (R/S)—N-(3-chloro-2-fluorophenyl)-6-((3,3-difluoro-1-(oxetan-3-yl)piperidin-4-yl)oxy)-7-methoxyquinazolin-4-amine], in series [1], the concentration ratio (Kp) at 4 h was more than 0.3. Further, in the series with PC-9 tumor cell, the IC50 is less than 1 nM and the “inhibiting PC-9 tumor cell growth compared with Iressa” value is on record as “more effective than Iressa”.

For `C#Cc1cccc(Nc2ncnc3cc(OC)c(OC4CCN(C5COC5)CC4(F)F)cc23)c1F` (racemic) [Compound 2, (R/S)-6-((3,3-difluoro-1-(oxetan-3-yl)piperidin-4-yl)oxy)-N-(3-ethynyl-2-fluorophenyl)-7-methoxyquinazolin-4-amine], in series [1], the Kp at 4 h was more than 0.3.

With `[2H]C([2H])([2H])Oc1cc2ncnc(Nc3cccc(Cl)c3F)c2cc1OC1CCN(C2COC2)CC1(F)F` (racemic) [Compound 3, (R/S)—N-(3-chloro-2-fluorophenyl)-6-((3,3-difluoro-1-(oxetan-3-yl)piperidin-4-yl)oxy)-7-(methoxy-d3)quinazolin-4-amine], the partition ratio (Kp) at 4 h in series [1] was more than 0.3. For the same compound, the 50% inhibitory concentration (IC50) with PC-9 tumor cell was less than 1 nM.

On to `[2H]C([2H])([2H])Oc1cc2ncnc(Nc3cccc(C#C)c3F)c2cc1OC1CCN(C2COC2)CC1(F)F` (racemic) [Compound 4, (R/S)-6-((3,3-difluoro-1-(oxetan-3-yl)piperidin-4-yl)oxy)-N-(3-ethynyl-2-fluorophenyl)-7-(methoxy-d3)quinazolin-4-amine], for which, in series [1], the Kp at 4 h was more than 0.3.

Take `C#Cc1c(F)ccc(Nc2ncnc3cc(OC)c(OC4CCN(C)CC4(F)F)cc23)c1F` (racemic) [Compound 5, (R/S)-6-((3,3-difluoro-1-methylpiperidin-4-yl)oxy)-N-(3-ethynyl-2,4-difluorophenyl)-7-methoxyquinazolin-4-amine]: in series [1], the Kp at 4 h is more than 0.3.

Consider `C#Cc1cccc(Nc2ncnc3cc(OC)c(OC4CCN(C)CC4(F)F)cc23)c1F` (racemic) [Compound 6, (R/S)-6-((3,3-difluoro-1-methylpiperidin-4-yl)oxy)-N-(3-ethynyl-2-fluorophenyl)-7-methoxyquinazolin-4-amine], for which the partition ratio (Kp) at 4 h in series [1] was more than 0.3.

In the case of `COc1cc2ncnc(Nc3ccc(F)c(Cl)c3F)c2cc1OC1CCN(C2COC2)CC1(F)F` (racemic) [Compound 7, (R/S)—N-(3-chloro-2,4-difluorophenyl)-6-((3,3-difluoro-1-(oxetan-3-yl)piperidin-4-yl)oxy)-7-methoxyquinazolin-4-amine], in series [1], the Kp at 4 h was more than 0.3. Moreover, in the series on PC-9 tumor cell, the IC50 was less than 1 nM and the “inhibiting PC-9 tumor cell growth compared with Iressa” value was “more effective than Iressa”.

Take `C#Cc1c(F)ccc(Nc2ncnc3cc(OC)c(OC4CCN(C5COC5)CC4(F)F)cc23)c1F` (racemic) [Compound 8, (R/S)-6-((3,3-difluoro-1-(oxetan-3-yl)piperidin-4-yl)oxy)-N-(3-ethynyl-2,4-difluorophenyl)-7-methoxyquinazolin-4-amine]: the Kp at 4 h in series [1] is more than 0.3.

With `[2H]C([2H])([2H])Oc1cc2ncnc(Nc3ccc(F)c(Cl)c3F)c2cc1OC1CCN(C2COC2)CC1(F)F` (racemic) [Compound 9, (R/S)—N-(3-chloro-2,4-difluorophenyl)-6-((3,3-difluoro-1-(oxetan-3-yl)piperidin-4-yl)oxy)-7-(methoxy-d3)quinazolin-4-amine], the Kp at 4 h in series [1] was more than 0.3. Besides, in the series on PC-9 tumor cell, the IC50 is less than 1 nM and the “inhibiting PC-9 tumor cell growth compared with Iressa” value is reported as “more effective than Iressa”.

Regarding `[2H]C([2H])([2H])Oc1cc2ncnc(Nc3ccc(F)c(C#C)c3F)c2cc1OC1CCN(C2COC2)CC1(F)F` (racemic) [Compound 10, (R/S)-6-((3,3-difluoro-1-(oxetan-3-yl)piperidin-4-yl)oxy)-N-(3-ethynyl-2,4-difluorophenyl)-7-(methoxy-d3)quinazolin-4-amine], the Kp at 4 h in series [1] is more than 0.3.

Regarding `COc1cc2ncnc(Nc3cccc(Cl)c3F)c2cc1O[C@@H]1CCN(C2COC2)CC1(F)F` [Compound 11, (R)—N-(3-chloro-2-fluorophenyl)-6-((3,3-difluoro-1-(oxetan-3-yl)piperidin-4-yl)oxy)-7-methoxyquinazolin-4-amine], in series [1], the Kp at 4 h is more than 0.3. In addition, in the series on PC-9 tumor cell, the IC50 was less than 1 nM.

With `C#Cc1cccc(Nc2ncnc3cc(OC)c(O[C@@H]4CCN(C5COC5)CC4(F)F)cc23)c1F` [Compound 12, (R)-6-((3,3-difluoro-1-(oxetan-3-yl)piperidin-4-yl)oxy)-N-(3-ethynyl-2-fluorophenyl)-7-methoxyquinazolin-4-amine], the Kp at 4 h in series [1] was more than 0.3.

With `COc1cc2ncnc(Nc3cccc(Cl)c3F)c2cc1O[C@H]1CCN(C2COC2)CC1(F)F` [Compound 13, (S)—N-(3-chloro-2-fluorophenyl)-6-((3,3-difluoro-1-(oxetan-3-yl)piperidin-4-yl)oxy)-7-methoxyquinazolin-4-amine], the Kp at 4 h in series [1] is more than 0.3. Further, in the series with PC-9 tumor cell, the IC50 was less than 1 nM.

For the compound `C#Cc1cccc(Nc2ncnc3cc(OC)c(O[C@H]4CCN(C5COC5)CC4(F)F)cc23)c1F` [Compound 14, (S)-6-((3,3-difluoro-1-(oxetan-3-yl)piperidin-4-yl)oxy)-N-(3-ethynyl-2-fluorophenyl)-7-methoxyquinazolin-4-amine], the concentration ratio (Kp) at 4 h in series [1] is more than 0.3.

On to `[2H]C([2H])([2H])Oc1cc2ncnc(Nc3cccc(Cl)c3F)c2cc1O[C@@H]1CCN(C2COC2)CC1(F)F` [Compound 15, (R)—N-(3-chloro-2-fluorophenyl)-6-((3,3-difluoro-1-(oxetan-3-yl)piperidin-4-yl)oxy)-7-(methoxy-d3)quinazolin-4-amine], for which the Kp at 4 h in series [1] was more than 0.3. Besides, the IC50 in the series on PC-9 tumor cell was less than 1 nM.

For `[2H]C([2H])([2H])Oc1cc2ncnc(Nc3cccc(C#C)c3F)c2cc1O[C@@H]1CCN(C2COC2)CC1(F)F` [Compound 16, (R)-6-((3,3-difluoro-1-(oxetan-3-yl)piperidin-4-yl)oxy)-N-(3-ethynyl-2-fluorophenyl)-7-(methoxy-d3)quinazolin-4-amine], the partition ratio (Kp) at 4 h in series [1] was more than 0.3.

For `[2H]C([2H])([2H])Oc1cc2ncnc(Nc3cccc(Cl)c3F)c2cc1O[C@H]1CCN(C2COC2)CC1(F)F` [Compound 17, (S)—N-(3-chloro-2-fluorophenyl)-6-((3,3-difluoro-1-(oxetan-3-yl)piperidin-4-yl)oxy)-7-(methoxy-d3)quinazolin-4-amine], the Kp at 4 h in series [1] was more than 0.3. For the same compound, in the series on PC-9 tumor cell, the IC50 was less than 1 nM.

On to `[2H]C([2H])([2H])Oc1cc2ncnc(Nc3cccc(C#C)c3F)c2cc1O[C@H]1CCN(C2COC2)CC1(F)F` [Compound 18, (S)-6-((3,3-difluoro-1-(oxetan-3-yl)piperidin-4-yl)oxy)-N-(3-ethynyl-2-fluorophenyl)-7-(methoxy-d3)quinazolin-4-amine], for which the Kp at 4 h in series [1] was more than 0.3.

Take `C#Cc1c(F)ccc(Nc2ncnc3cc(OC)c(O[C@@H]4CCN(C)CC4(F)F)cc23)c1F` [Compound 19, (R)-6-((3,3-difluoro-1-methylpiperidin-4-yl)oxy)-N-(3-ethynyl-2,4-difluorophenyl)-7-methoxyquinazolin-4-amine]: the Kp at 4 h in series [1] is more than 0.3.

Take `C#Cc1cccc(Nc2ncnc3cc(OC)c(O[C@@H]4CCN(C)CC4(F)F)cc23)c1F` [Compound 20, (R)-6-((3,3-difluoro-1-methylpiperidin-4-yl)oxy)-N-(3-ethynyl-2-fluorophenyl)-7-methoxyquinazolin-4-amine]: in series [1], the Kp at 4 h was more than 0.3.

On to `C#Cc1c(F)ccc(Nc2ncnc3cc(OC)c(O[C@H]4CCN(C)CC4(F)F)cc23)c1F` [Compound 21, (S)-6-((3,3-difluoro-1-methylpiperidin-4-yl)oxy)-N-(3-ethynyl-2,4-difluorophenyl)-7-methoxyquinazolin-4-amine], for which the Kp at 4 h in series [1] is more than 0.3.

On to `C#Cc1cccc(Nc2ncnc3cc(OC)c(O[C@H]4CCN(C)CC4(F)F)cc23)c1F` [Compound 22, (S)-6-((3,3-difluoro-1-methylpiperidin-4-yl)oxy)-N-(3-ethynyl-2-fluorophenyl)-7-methoxyquinazolin-4-amine], for which the Kp at 4 h in series [1] is more than 0.3.

As to `COc1cc2ncnc(Nc3ccc(F)c(Cl)c3F)c2cc1O[C@@H]1CCN(C2COC2)CC1(F)F` [Compound 23, (R)—N-(3-chloro-2,4-difluorophenyl)-6-((3,3-difluoro-1-(oxetan-3-yl)piperidin-4-yl)oxy)-7-methoxyquinazolin-4-amine], the Kp at 4 h in series [1] is more than 0.3. Besides, in the series on PC-9 tumor cell, the IC50 is less than 1 nM.

In the case of `C#Cc1c(F)ccc(Nc2ncnc3cc(OC)c(O[C@@H]4CCN(C5COC5)CC4(F)F)cc23)c1F` [Compound 24, (R)-6-((3,3-difluoro-1-(oxetan-3-yl)piperidin-4-yl)oxy)-N-(3-ethynyl-2,4-difluorophenyl)-7-methoxyquinazolin-4-amine], the Kp at 4 h in series [1] is more than 0.3.

`C#Cc1c(F)ccc(Nc2ncnc3cc(OC)c(O[C@H]4CCN(C5COC5)CC4(F)F)cc23)c1F` [Compound 26, (S)-6-((3,3-difluoro-1-(oxetan-3-yl)piperidin-4-yl)oxy)-N-(3-ethynyl-2,4-difluorophenyl)-7-methoxyquinazolin-4-amine]: the Kp at 4 h in series [1] was more than 0.3.

As for `[2H]C([2H])([2H])Oc1cc2ncnc(Nc3ccc(F)c(C#C)c3F)c2cc1O[C@@H]1CCN(C2COC2)CC1(F)F` [Compound 28, (R)-6-((3,3-difluoro-1-(oxetan-3-yl)piperidin-4-yl)oxy)-N-(3-ethynyl-2,4-difluorophenyl)-7-(methoxy-d3)quinazolin-4-amine], the Kp at 4 h in series [1] was more than 0.3.

`[2H]C([2H])([2H])Oc1cc2ncnc(Nc3ccc(F)c(C#C)c3F)c2cc1O[C@H]1CCN(C2COC2)CC1(F)F` [Compound 30, (S)-6-((3,3-difluoro-1-(oxetan-3-yl)piperidin-4-yl)oxy)-N-(3-ethynyl-2,4-difluorophenyl)-7-(methoxy-d3)quinazolin-4-amine]: the Kp at 4 h in series [1] is more than 0.3.
